This note sets out measurements from US20130012687A1, “INDUCIBLE SELF-CLEAVING PROTEASE TAG AND METHOD OF PURIFYING RECOMBINANT PROTEINS USING THE SAME” (The Board of Trustees of the Leland Stanford Junior …, priority 2009, published 2013).

SMILES strings stand for the structures.

This assay concerns the target Vibrio cholerae MARTX toxin cysteine protease domain (CPD) (Vibrio cholerae serotype O1, UniProt Q9KS12). The format is biochemical. To be noted: increasing amounts of InsP6, 2 hrs at 4° C.

Sequence of Vibrio cholerae MARTX toxin cysteine protease domain (CPD) (Q9KS12 3440-3650 limits assumed): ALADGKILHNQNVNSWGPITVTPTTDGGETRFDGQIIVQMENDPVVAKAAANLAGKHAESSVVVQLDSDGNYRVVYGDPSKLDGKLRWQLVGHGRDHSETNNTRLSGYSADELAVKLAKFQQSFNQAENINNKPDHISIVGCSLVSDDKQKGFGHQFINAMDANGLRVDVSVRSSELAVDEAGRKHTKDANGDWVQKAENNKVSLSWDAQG

For the compound `O=P(O)(O)OC1C(OP(=O)(O)O)C(OP(=O)(O)O)C(OP(=O)(O)O)C(OP(=O)(O)O)C1OP(=O)(O)O` (stereo not shown) [InsP6, inositol hexakisphosphate], the “release of GFP from Ni2+-NTA agarose beads (CPD autoprocessing)” value is reported as “stimulated the release of GFP”.
